Experimental data reported in ChEMBL document CHEMBL5705883, “Discovery of a selective inhibitor of oncogenic B-Raf kinase with potent antimelanoma activity” (Proc Natl Acad Sci U S A, 2008).
Calls of active or inactive are those of the source. No cut-off for these calls is given here.

Columns and labels:
[1] = species on record: Mus musculus; conditions: SCID, dose 100.0 mg/kg, route po, time 15.0 day
[2] = tested on: COLO 205; experiment: cells; conditions: Homo sapiens, COLO 205, 72 h
[3] = tested on: A-375; experiment: cells; conditions: Homo sapiens, A-375, 72 h
[4] = tested on: WM 266-4; experiment: cells; conditions: Homo sapiens, WM 266-4, 72 h
[5] = tested on: COLO-829; experiment: cells; conditions: Homo sapiens, COLO-829, 72 h
[6] = cells; conditions: HT716, 72 h
[7] = tested on: SW-620; experiment: cells; conditions: Homo sapiens, SW-620, 72 h
[8] = tested on: NCI-H460; experiment: cells; conditions: Homo sapiens, NCI-H460, 72 h
[9] = tested on: Calu-6; experiment: cells; conditions: Homo sapiens, Calu-6, 72 h
[10] = tested on: HCT-116; experiment: cells; conditions: Homo sapiens, HCT-116, 72 h
[11] = tested on: SK-MEL-2; experiment: cells; conditions: Homo sapiens, SK-MEL-2, 72 h
[12] = tested on: SK-MEL3; experiment: cells; conditions: Homo sapiens, SK-MEL3, 72 h
[13] = tested on: LoVo; experiment: cells; conditions: Homo sapiens, 72 h
[14] = tested on: NCI-H1299; experiment: cells; conditions: Homo sapiens, NCI-H1299, 72 h
[15] = cells; conditions: Homo sapiens, COLO 205, 1 h
[16] = cells; conditions: Homo sapiens, A-375, 1 h
[17] = cells; conditions: Homo sapiens, COLO-829, 1 h
[18] = cells; conditions: Homo sapiens, SW-620, 1 h
[19] = in vivo; conditions: nude, mouse, plasma, po, 1000 mg/kg
[20] = animal or person; conditions: Mus musculus, COLO 205, po, 336 h, read-out: INH

Structure (SMILES): CCCS(=O)(=O)Nc1ccc(F)c(C(=O)c2c[nH]c3ncc(Cl)cc23)c1F [PLX-4720]
- inhibition [1]: Active
- GI50 [2]: 0.31 µM
- GI50 [3]: 0.5 µM
- GI50 [4]: 1.5 µM
- GI50 [5]: 1.7 µM
- GI50 [6]: 10 µM
- GI50 [7]: 13 µM
- GI50 [8]: 24 µM
- GI50 [9]: 26 µM
- GI50 [10]: 27 µM
- GI50 [11]: 27 µM
- GI50 [12]: 27 µM
- GI50 [13]: 29 µM
- GI50 [14]: 41 µM
- IC50 [15]: 0.014 µM
- IC50 [16]: 0.046 µM
- IC50 [17]: 0.044 µM
- IC50 [18]: > 40 µM
- concentration at 336 h [19]: ≤ 600 µM
- inhibition in vivo at 20 mg/kg [20]: 43%
